According to patent US20260232634A1, “TREATMENT OF PEDIATRIC CANCERS USING GYLCOGEN SYNTHASE KINASE FORM B INHIBITORS” (Actuate Therapeutics Inc., priority 2023, published 2026):
Several values for one entry are separate records, joined by “and”; a condition that tells them apart may be missing. Equal entries are not always repeated. Entries after “also recorded” stand apart in the source; their conditions may differ.

What was measured:
[1] = system: 93T449 liposarcoma cell line; assay: Western blot analysis after 9-ING-41 treatment; format: cell-based, Human; conditions: 93T449, pretreated at IC5072, harvested after 48 hours
Description: (§1) Saos-2 osteosarcoma and 93T449 liposarcoma cell lines were pretreated at IC5072 with small molecule GSK-3 inhibitor 9-ING-41 (elraglusib). The cells were harvested for western blot analysis after 48 hours of treatment. Additionally, both cancer cell lines as well as TALL-104 T-cells and NK-92 NK cells were treated with 0.5 μM 9-ING-41 for 24 hours and harvested for Luminex cytokine profiling. […] Additionally, an increase in PD-L1 expression was observed. […] Follow-up cytokine profiling is in progress. […] The potential synergistic effect of these two therapies is currently under investigation with co-culture experiments of sarcoma and immune cells. The treatment cohorts for these experiments include 9-ING-41 combined with either anti-PD-L1, anti-PD-1, or anti-CTLA-4 immune checkpoint inhibitors.

[2] = system: Saos-2 osteosarcoma cell line; assay: Western blot analysis after 9-ING-41 treatment; format: cell-based, Human; conditions: Saos-2, pretreated at IC5072, harvested after 48 hours
Description: as §1

refractory malignancies = assay: Phase 1/2 study of 9-ING-41 as a single agent or with chemotherapy in pediatric patients with refractory malignancies; format: in vivo, human (pediatric patients); conditions: for OS (overall survival) / Notes (response): intermediate data; for Best Response / Status Last FUP / Survival: unaudited data
[3] = 1801 adult study, tolerated dose level; format: in vivo, human (adult)
TALL-104 T-cells = assay: Luminex cytokine profiling; format: cell-based; conditions: 0.5 μM 9-ING-41 for 24 hours
Description: as §1

NK-92 NK cells = assay: Luminex cytokine profiling; format: cell-based; conditions: NK-92 cells, 0.5 μM 9-ING-41 for 24 hours
Description: as §1

[4] = Human pharmacokinetics of 9-ING-41 from study NCT03678883; conditions: in vivo, intravenous, dose 9.3 mg/kg (current dose)
Excerpt: Example 1. Human Pharmacokinetics of 9-ING-41 from Study

[5] = system: 93T449 liposarcoma cell line; assay: Luminex cytokine profiling; format: cell-based, Human; conditions: 93T449, 0.5 μM 9-ING-41 for 24 hours
Description: as §1

[6] = system: Saos-2 osteosarcoma cell line; assay: Luminex cytokine profiling; format: cell-based, Human
Description: as §1

[7] = CIC rearranged sarcoma patient, elraglusib 15 mg/kg + Cyclophosphamide/topotecan
[8] = Ependymoma patient, elraglusib 9.3 mg/kg + Cyclophosphamide/topotecan
[9] = Ependymoma patient, elraglusib 12.4 mg/kg, chemotherapy backbone N/A
[10] = Ependymoma patient, elraglusib 15 mg/kg + Irinotecan
[11] = Ewing sarcoma patient, 9-ING-41 9.3 mg/kg + Cyclophosphamide/topotecan
[12] = Ewing sarcoma patient, elraglusib 9.3 mg/kg + Cyclophosphamide/topotecan
[13] = Ewing sarcoma patient, elraglusib 12.4 mg/kg + Cyclophosphamide/topotecan
[14] = Ewing sarcoma patient, elraglusib 15 mg/kg + Cyclophosphamide/topotecan
[15] = Glioblastoma multiforme (GBM) patient, elraglusib 12.4 mg/kg + Cyclophosphamide/topotecan
[16] = Neuroblastoma patient, 9-ING-41 12.4 mg/kg + Cyclophosphamide/topotecan
[17] = Neuroblastoma patient, elraglusib 9.3 mg/kg + Irinotecan
[18] = Neuroblastoma patient, elraglusib 12.4 mg/kg + Cyclophosphamide/topotecan
[19] = Neuroblastoma patient, elraglusib 12.4 mg/kg + Irinotecan
[20] = Neuroblastoma patient, elraglusib 15 mg/kg + Cyclophosphamide/topotecan
[21] = Osteosarcoma patient, elraglusib 9.3 mg/kg + Cyclophosphamide/topotecan
[22] = Rhabdomyosarcoma patient, elraglusib 9.3 mg/kg + Irinotecan
[23] = seven metastatic, refractory Ewing and Ewing-like sarcoma patients, elraglusib+cyclophosphamide/topotecan

Cn1cc(C2=C(c3coc4ccc(F)cc34)C(=O)NC2=O)c2cc3c(cc21)OCO3 [9-ING-41, 3-(5-Fluorobenzofuran-3-yl)-4-(5-methyl-5H-[1,3]dioxolo[4,5-f]indol-7-yl) pyrrole-2,5-dione]
PD-L1 expression, western blot [1]: increase | cPARP (apoptotic marker), western blot [1]: increase | PD-L1 expression, western blot [2]: increase | cPARP (apoptotic marker), western blot [2]: increase | patients with stable disease (refractory malignancies; 6 patients (2 NBL, 1 aRMS, 1 EP, 1 OS, 1 GBM)): 26.1% | patients remaining on study treatment ≥3 months (refractory malignancies; 8 pts (2 NBL, 2 EP, 1 OS, 1 aRMS, 1 ES, 1 PB)): 35% | OS (overall survival) (refractory malignancies; Adrenocortical carcinoma patient, 9-ING-41 15 mg/kg + Cyclophosphamide/topotecan): 102 days | OS (overall survival) (refractory malignancies; Alveolar rhabdomyosarcoma patient, 9-ING-41 9.3 mg/kg + Irinotecan): 375 days | OS (overall survival) (refractory malignancies; CIC rearranged sarcoma patient, 9-ING-41 15 mg/kg + Cyclophosphamide/topotecan): 47 days | Best Response (refractory malignancies; [7]): PD (progressive disease) | Status Last FUP (refractory malignancies; [7]): Dead | Survival (refractory malignancies; [7]): 48 days | OS (overall survival) (refractory malignancies; Embryonal CNS tumor NOS patient, 9-ING-41 9.3 mg/kg + Irinotecan): 262 days | Best Response (refractory malignancies; [8]): PD (progressive disease) | Status Last FUP (refractory malignancies; [8]): Alive | Survival (refractory malignancies; [8]): 182 days | Best Response (refractory malignancies; [9]): SD (stable disease) | Status Last FUP (refractory malignancies; [9]): Dead | Survival (refractory malignancies; [9]): 440 days | Best Response (refractory malignancies; [10]): SD (stable disease) | Status Last FUP (refractory malignancies; [10]): Dead | Survival (refractory malignancies; [10]): 757 days and 526 days | Notes (response) (refractory malignancies; [11]): pCR- | OS (overall survival) (refractory malignancies; [11]): 379 days | OS (overall survival) (refractory malignancies; Ewing sarcoma patient, 9-ING-41 12.4 mg/kg + Cyclophosphamide/topotecan): 176 days | Status Last FUP (refractory malignancies; [12]): Alive | Survival (refractory malignancies; [12]): 804 days | Best Response (refractory malignancies; [13]): SD (stable disease) | Status Last FUP (refractory malignancies; [13]): Dead | Survival (refractory malignancies; [13]): 177 days | Best Response (refractory malignancies; [14]): SD (stable disease); also recorded: PR (partial response) | Status Last FUP (refractory malignancies; [14]): Dead and Alive | OS (overall survival) (refractory malignancies; Glioblastoma multiforme (GBM) patient, 9-ING-41 12.4 mg/kg + Cyclophosphamide/topotecan): 406 days | Best Response (refractory malignancies; [15]): SD (stable disease) | Status Last FUP (refractory malignancies; [15]): Alive | Survival (refractory malignancies; [15]): 407 days | OS (overall survival) (refractory malignancies; High grade astrocytoma patient, 9-ING-41 15 mg/kg, combo treatment N/A): 97 days | OS (overall survival) (refractory malignancies; Neuroblastoma patient, 9-ING-41 9.3 mg/kg + Irinotecan, 9.3 mg/kg): 245 days and 389 days | Notes (response) (refractory malignancies; [16]): pCR- | OS (overall survival) (refractory malignancies; [16]): 308 days | OS (overall survival) (refractory malignancies; Neuroblastoma patient, 9-ING-41 15 mg/kg + Cyclophosphamide/topotecan): 113 days | OS (overall survival) (refractory malignancies; Neuroblastoma patient, 9-ING-41 15 mg/kg + Irinotecan): 68 days | Best Response (refractory malignancies; [17]): SD (stable disease); also recorded: PD (progressive disease) | Status Last FUP (refractory malignancies; [17]): Dead | Survival (refractory malignancies; [17]): 245 days and 389 days | Status Last FUP (refractory malignancies; [18]): Dead | Survival (refractory malignancies; [18]): 438 days | Best Response (refractory malignancies; [19]): SD (stable disease) | Status Last FUP (refractory malignancies; [19]): Dead | Survival (refractory malignancies; [19]): 360 days | Best Response (refractory malignancies; [20]): SD (stable disease) | Status Last FUP (refractory malignancies; [20]): Alive | Survival (refractory malignancies; [20]): 440 days | OS (overall survival) (refractory malignancies; Osteosarcoma patient, 9-ING-41 9.3 mg/kg + Cyclophosphamide/topotecan): 389 days | Best Response (refractory malignancies; [21]): SD (stable disease) | Status Last FUP (refractory malignancies; [21]): Alive | Survival (refractory malignancies; [21]): 481 days | OS (overall survival) (refractory malignancies; Progressive ependymoma patient, 9-ING-41 9.3 mg/kg + Cyclophosphamide/topotecan): 407 days | OS (overall survival) (refractory malignancies; Recurrent ependymoma patient, 9-ING-41 15 mg/kg + Irinotecan): 403 days | OS (overall survival) (refractory malignancies; Rhabdomyosarcoma patient, 9-ING-41 15 mg/kg + Cyclophosphamide/topotecan): 78 days | OS (overall survival) (refractory malignancies; Rhabdomyosarcoma patient, 9-ING-41 15 mg/kg + Irinotecan): 19 days | Best Response (refractory malignancies; [22]): SD (stable disease) | Status Last FUP (refractory malignancies; [22]): Dead | Survival (refractory malignancies; [22]): 375 days | tolerability (refractory malignancies; heavily pre-treated pediatric patient population): well tolerated | reduction of tumor at the 1st tumor assessment (partial remission) (refractory malignancies; individual Ewing patients, elraglusib+cyclophosphamide/topotecan): 52% and 96% | tumor response at 1st tumor assessment (refractory malignancies; one metastatic, refractory Ewing patient, elraglusib+cyclophosphamide/topotecan, 2 months of treatment): complete remission | radiographic and pathologic response (refractory malignancies; one patient with recurrent Ewing's sarcoma, after 3 cycles of elraglusib/cyclophosphamide/topotecan): complete response | time in remission with no evidence of disease after termination of treatment (refractory malignancies; same Ewing patient, stopped all treatments after 4 months): ~2 years | patients continuing on treatment (refractory malignancies; [23]): three of the seven | patients remaining alive (refractory malignancies; [23]): Four of the seven | highest currently tolerated dose level [3]: tolerated dose level in the 1801 adult study (15 mg/kg). | CXCL11 (TALL-104 T-cells): increase | IL-18 (TALL-104 T-cells): increased level | IL-8 chemokine (NK-92 NK cells): increase | soluble TRAIL (TRAIL/TNFSF10) (NK-92 NK cells): increase | AUC(0-inf) [4]: 45700 ng·h/mL | Cmax [4]: 6410 ng/mL | half-life [4]: 18.9 ± 6.3 h | AUC(0-t) ([4]; read-out: AUC(0-24)): 42000 ng·h/mL | growth factor TGF-α [5]: homogenous increase | IL-6 ([6]; Saos-2 (only this cancer cell line), 0.5 μM 9-ING-41 for 24 hours): increase | growth factor TGF-α ([6]; Saos-2, 0.5 μM 9-ING-41 for 24 hours): homogenous increase
